In publication PMC10906223 (JCI Insight, 2024):
Several values for one entry are separate records, joined by “and”; a condition that tells them apart may be missing. Identical values can stand only once.

What was measured:
[1] = system: human donor dispersed islet cells; assay: Glucagon secretion from healthy human donor dispersed islet cells; assay type: cell-based; set-up: Glucagon secretion: unit not given here
Experimental: (§1) Pancreata of nondiabetic C57BL/6J mice were digested using collagenase P (Roche Diagnostics, catalog 11213873001), and islets were manually picked up using a stereomicroscope (ZEISS Stemi 305). […] Isolated mouse islets or provided human islets were dispersed as described ([28]). Briefly, 100–120 islets were washed 2 times using modified HBSS, then dispersed in 600 μL Accutase (Innovative Cell Technologies, catalog AT-104) by gently pipetting up and down for 7 minutes at 37°C. […] Following refreshing of KRBH, cells were dispensed in 8 microfuge tubes (2,000 cells/tube) and treated with WCDD301, preclustered Ephrin-A5 Fc, or preclustered Fc in the presence or absence of the competitive inhibitor of EphA4 receptor, rhyncophylline ([60]) (MilliporeSigma, catalog SML2345). In the presence or absence of these effectors, secretion assay was performed sequentially as shown in Supplemental Table 5. […] Preclustering of Ephrin-A5 Fc was done by mixing Ephrin-A5 Fc or Fc alone (BioLegend, catalog 790102) with anti-Fc antibody (Invitrogen, catalog A16086) (1:10 molar ratio) 20 minutes before treatment ([62]). […] Shedding of cleaved EphA4 was measured from the cell culture medium. Experiments were performed by dispersion of 200 islets, and EphA4 levels in media were measured by EphA4 ELISA (ABclonal, catalog RK06572).
(§2) The Integrated Islet Distribution Program provided us human donor islets with their characteristics (Supplemental Table 6). Islets were centrifuged at 500g for 3 minutes, resuspended in CMRL 1066 medium (Gibco, catalog 1150-037) containing 11 mM glucose, and rested in an incubator overnight.
(§3) For the hormone secretion assay, islets or dispersed islet cells were adapted in KRBH buffer containing 11 mM glucose for 1 hour. Then, after 2 washes in HBSS containing 11 mM glucose, islets or cells were treated in the following sequential order in the presence or absence of WCDD301: incubation in KRBH (1 mM glucose, 30 minutes) followed by medium collection, incubation in KRBH (11 mM glucose, 30 minutes) followed by medium collection.

[2] = system: human donor dispersed islet cells; assay: Somatostatin secretion from non-diabetic human donor dispersed islet cells; assay type: cell-based
Experimental: as §1, §2, §3

[3] = system: dispersed islet cells of donors with T1D; assay: Glucagon secretion from dispersed islet cells of donors with T1D; assay type: cell-based, human; conditions: for Secretion of glucagon: dispersed islet cells, T1D donors, one value per donor, Figure 2H
Experimental: as §1, §2, §3

[4] = system: mouse dispersed islet cells; assay: Immunofluorescence: EphA4 intensity in glucagon+ mouse dispersed islet cells; assay type: cell-based;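 on EphA4 intensity: ImageJ intensity within ROI drawn around each glucagon+ cell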
Experimental: Coverslips were treated with WCDD301, preclustered Ephrin-A5 Fc, or preclustered Fc in the following sequential order: KRBH (11 mM glucose, 30 minutes), KRBH (1 mM glucose, 60 minutes), KRBH (1 mM glucose, 30 minutes), and KRBH (11 mM glucose, 60 minutes). After treatment, coverslips were washed once in PBS, fixed in 2% paraformaldehyde in PBS (30 minutes), and again washed in PBS. […] Following wash in PBS, coverslips were incubated in a mixture of Alexa Fluor 555 Phalloidin (Cell Signaling Technology, catalog 8953) and secondary antibodies (goat anti-rabbit Alexa Fluor 488, catalog A-21094, 1:1,000, Molecular Probes; and goat anti-mouse Alexa Fluor 633, catalog A21052, 1:1,000, Life Technologies) for 1 hour at RT. Both primary and secondary antibodies were diluted in blocking buffer containing 0.05% Tween 20. Coverslips were washed using PBS and counterstained by using DAPI (1:1,000) for 10 minutes. Following 2 washes in PBS, coverslips were mounted on glass slides using ProLong Glass Antifade Mountant (Invitrogen, catalog P36980). Images were captured using the Zeiss LSM880 microscope with a Plan-Apochromat 63× 1.4 NA objective lens by setting dual-band dichroic/filter for 405, 488, 561, and 633 nm laser excitation. For each slide, 25–30 fields of view were scanned, and in each field of view, 3–5 cells were imaged. […] Values of intensity were compared among groups using 1-way ANOVA, α = 0.05.

diabetic NOD mice [5] = assay: Plasma insulin in NOD mice after treatment; assay type: in vivo, mouse; conditions: WCDD301-treated diabetic NOD mice; Figure 6C
Experimental: Terminal blood was collected into microfuge tubes containing K2-EDTA (supplemented by 45 mM phenylmethylsulphonyl fluoride and 0.77 μM aprotinin) through cardiac puncture. Plasma was separated by centrifugation (2,000g for 10 minutes at 4°C) and kept at –80°C until analysis. Plasma samples with hemolysis were excluded from the study. […] Values of BUN, creatinine, ALB, ALT, and AST were determined by a Roche Cobas C501 Autoanalyzer as performed by the Washington University Diabetes Research Center Translational Diagnostics Core. Reference intervals of blood chemistry parameters for inbred NOD mice were extracted from the Mouse Phenome Database (https://phenome.jax.org/).

diabetic NOD mice [6] = assay: Daily urine glucose in NOD mice; assay type: in vivo, mouse
Experimental: We preweighed WCDD301 into microfuge tubes and reconstituted it using deionized water. Using a 10 μL pipette tip, we placed the calculated dose of WCDD301 (at the volume range of 1–1.5 μL) within the center of pearls. WCDD301 was placed into pearls 30–45 minutes before administration. For oral administration of pearls, we designed an applicator using a disposable plastic transfer pipette and syringe plunger lubricated with olive oil. Food intake and body weight in each experimental group (diabetic WCDD301-treated, diabetic placebo-treated, and nondiabetic placebo-treated NOD mice) were monitored daily for 4 weeks. Urine glucose was measured from individually caged NOD mice (nondiabetic placebo treated n = 2, diabetic placebo treated n = 2, and diabetic WCDD301 treated n = 4, 21–23 weeks old) with metabolic cages. Urine glucose was monitored every 24 hours for 10 days by semiquantitative measurements (P-STICKS, Millpledge Veterinary).

## CC(=O)OCC(N)(COC(C)=O)COC(C)=O [WCDD301, 2-(acetoxymethyl)-2-aminopropane-1,3-diyl diacetate]
[1]; 1, 3 or 6 hours exposure, 1 mM and 11 mM glucose
  Effect on glucagon secretion: dose-dependent and time-dependent suppression of glucagon secretion
[1]; 1 hour exposure, WCDD301 0.75 µM, 1 mM (first group), Figure 2A
  Glucagon secretion: 48.0 and 44.0 and 43.0
[1]; 1 hour exposure, WCDD301 0.75 µM, head printed 1 mM (second group c4-c7), Figure 2A
  Glucagon secretion: 55.8 and 56.2 and 53.0
[1]; 1 hour exposure, WCDD301 1.5 µM, 1 mM (first group), Figure 2A
  Glucagon secretion: 41.5 and 42.9 and 40.0
[1]; 1 hour exposure, WCDD301 1.5 µM, head printed 1 mM (second group c4-c7), Figure 2A
  Glucagon secretion: 50.8 and 55.7 and 48.0
[1]; 1 hour exposure, WCDD301 3 µM, 1 mM (first group), Figure 2A
  Glucagon secretion: 40.5 and 41.8 and 38.0
[1]; 1 hour exposure, WCDD301 3 µM, head printed 1 mM (second group c4-c7), Figure 2A
  Glucagon secretion: 49.7 and 48.4 and 44.0
[1]; 3 hours exposure, WCDD301 0.75 µM, 1 mM (first group), Figure 2B
  Glucagon secretion: 41.6 and 44.5 and 43.0
[1]; 3 hours exposure, WCDD301 0.75 µM, head printed 1 mM (second group c4-c7), Figure 2B
  Glucagon secretion: 66.0 and 60.4 and 68.0
[1]; 3 hours exposure, WCDD301 1.5 µM, 1 mM (first group), Figure 2B
  Glucagon secretion: 44.9 and 42.7 and 41.0
[1]; 3 hours exposure, WCDD301 1.5 µM, head printed 1 mM (second group c4-c7), Figure 2B
  Glucagon secretion: 58.5 and 55.8 and 60.0
[1]; 3 hours exposure, WCDD301 3 µM, 1 mM (first group), Figure 2B
  Glucagon secretion: 42.4 and 42.3 and 41.0
[1]; 3 hours exposure, WCDD301 3 µM, head printed 1 mM (second group c4-c7), Figure 2B
  Glucagon secretion: 66.8 and 54.9 and 52.0
[1]; 6 hours exposure, WCDD301 0.75 µM, 1 mM (first group), Figure 2C
  Glucagon secretion: 42.9 and 40.6 and 44.0
[1]; 6 hours exposure, WCDD301 0.75 µM, head printed 1 mM (second group c4-c7), Figure 2C
  Glucagon secretion: 67.1 and 76.1 and 81.0
[1]; 6 hours exposure, WCDD301 1.5 µM, 1 mM (first group), Figure 2C
  Glucagon secretion: 42.5 and 46.0 and 43.0
[1]; 6 hours exposure, WCDD301 1.5 µM, head printed 1 mM (second group c4-c7), Figure 2C
  Glucagon secretion: 67.6 and 68.1 and 62.0
[1]; 6 hours exposure, WCDD301 3 µM, 1 mM (first group), Figure 2C
  Glucagon secretion: 39.8 and 39.3 and 37.0
[1]; 6 hours exposure, WCDD301 3 µM, head printed 1 mM (second group c4-c7), Figure 2C
  Glucagon secretion: 56.5 and 55.1 and 50.0
[2]; 1, 3 or 6 hours, Supplemental Figure 4A-C
  Effect on somatostatin secretion: no effect on somatostatin secretion
[2]; WCDD301
  Somatostatin secretion (Supplemental Figure 4D; quantity not given): 1740.7 and 1280.5 and 1500.0
[3]; dispersed islet cells from donors with long-standing T1D
  Effect on glucagon secretion: reduced glucagon secretion
[3]; 1 mM glucose
  Secretion of glucagon: 13.445 and 14.59
[3]; 11 mM glucose
  Secretion of glucagon: 27.55 and 31.85
[4]; dispersed mouse islet cells
  Effect on EphA4 intensity: increased EphA4 intensity
[4]; mouse cells, individual values, Figure 3H
  EphA4 intensity: 35.0 and 29.0 and 43.3 and 17.8 and 36.0 and 30.0 and 27.0 and 37.0 and 31.0 and 41.7 and 27.2 and 38.0 and 32.0 and 32.1 and 39.0 and 33.0 and 19.7
Diabetic NOD mice [5]
  Plasma insulin: Undetectable
Diabetic NOD mice [6]; Diabetic, WCDD301 treated, Day 10
  Daily urine glucose (Figure 7D): 0
Diabetic NOD mice [6]; diabetic WCDD301-treated mice
  Urine glucose, daily monitoring: phenotypes similar to nondiabetic placebo-treated mice
